Laboratory results published in ChEMBL document CHEMBL4613260, “NF-κB Inhibitory and Antibacterial Helvolic and Fumagillin Derivatives from Aspergillus terreus” (J Nat Prod, 2020).
Calls of active or inactive are those of the source. The calls are words filed in the database; no cut-off is given here.

How the values were obtained:
[1] = Inhibition of TNFalpha-induced NFkappaB activation in human HEK293 cells after 6 hrs by luciferase assay; type: cell-based; details: HEK293, 6 h
HEK293 = assay: Cytotoxicity against HEK293 cells at 50 uM by SRB assay; type: cell-based; details: human, hek293, 50 µM
Staphylococcus aureus [2] = assay: Antibacterial activity against Staphylococcus aureus ATCC 43300 after 24 hrs by resazurin dye based broth microdilution method; type: functional; details: ATCC 43300, 24 h
A2780 = assay: Antiproliferative activity against human A2780 cells at 40 uM after 72 hrs by Cyquant assay; type: functional, cell-based
Escherichia coli [3] = assay: Antibacterial activity against Escherichia coli ATCC 9637 after 24 hrs by resazurin dye based broth microdilution method; type: functional; details: W ATCC 9637, 24 h
Escherichia coli [4] = assay: Antibacterial activity against Escherichia coli ATCC 9637 at 50 ug/ml after 24 hrs by resazurin dye based broth microdilution method; type: functional, organism-based; details: W ATCC 9637
Staphylococcus aureus [5] = assay: Antibacterial activity against Staphylococcus aureus ATCC 43300 at 50 ug/ml after 24 hrs by resazurin dye based broth microdilution method; type: functional, organism-based

SMILES | IC50 [1] [µM] | Activity (HEK293) | MIC (Staphylococcus aureus [2]) | Activity (A2780) | MIC (Escherichia coli [3]) | Activity (Escherichia coli [4]) | Activity (Staphylococcus aureus [5])
Cc1ccc(S(=O)(=O)N[C@@H](Cc2ccccc2)C(=O)CCl)cc1 [TPCK] | 5.3 | – | – | – | – | – | –
CC(=O)O[C@H]1C[C@@]2(C)[C@@H](CC[C@H]3[C@@]4(C)CCC(=O)[C@@H](C)[C@@H]4[C@H](O)C(=O)[C@@]32C)/C1=C(\CCC=C(C)C)C(=O)O | – | Non-Toxic | 12.5 µg/mL | inactive | 25 µg/mL | – | –
Cc1ccc(S(=O)(=O)/C=C/C#N)cc1 | 11 | – | – | – | – | – | –
CC(=O)O[C@H]1C[C@@]2(C)[C@@H](CC[C@H]3[C@@]4(C)CCC(=O)[C@@H](C)[C@@H]4C[C@@H](O)[C@@]32C)/C1=C(\CCC=C(C)C)C(=O)O | – | Non-Toxic | 6.25 µg/mL | inactive | 25 µg/mL | – | –
CC(=O)O[C@H]1C[C@@]2(C)[C@@H](CC[C@H]3[C@@]4(C)CCC(=O)[C@@H](C)[C@@H]4CC[C@@]32C)/C1=C(\CCC=C(C)C)C(=O)O | – | Non-Toxic | 6.25 µg/mL | inactive | 25 µg/mL | – | –
CC(=O)O[C@H]1C[C@@]2(C)[C@@H](CC[C@H]3[C@@]4(C)C=CC(=O)[C@@H](C)[C@@H]4[C@H](OC(C)=O)C(=O)[C@@]32C)/C1=C(\CCC=C(C)C)C(=O)O [HELVOLIC ACID] | 2.7 | Non-Toxic | 12.5 µg/mL | inactive | 3.12 µg/mL | – | –
CO[C@@H]1[C@H](OC(=O)/C=C/C=C/C=C/C(=O)O)CC[C@]2(O)CO[C@](C)([C@H](O)CC=C(C)C)[C@@H]12 | – | Non-Toxic | – | inactive | – | inactive | inactive
CO[C@@H]1[C@H](OC(=O)/C=C/C=C/C=C/C=C/C(=O)O)CC[C@]2(CO2)[C@H]1[C@@]1(C)O[C@@H]1CC=C(C)C [FUMAGILLIN] | – | Non-Toxic | – | inactive | – | inactive | inactive
O=C(N[C@H](CO)[C@H](O)c1ccc([N+](=O)[O-])cc1)C(Cl)Cl [CHLORAMPHENICOL] | – | – | 19.4 µM | – | 9.66 µM | – | –
CC(=O)O[C@H]1C[C@@]2(C)[C@@H](CC[C@H]3[C@@]4(C)CCC(=O)[C@@H](C)[C@@H]4[C@H](OC(C)=O)C(=O)[C@@]32C)/C1=C(\CCC=C(C)C)C(=O)O | 6.5 | Non-Toxic | 50 µg/mL | inactive | 25 µg/mL | – | –
